Measurements reported in US20240190890A1, “MK2 INHIBITORS AND USES THEREOF” (Bristol-Myers Squibb Company, priority 2022, published 2024).

Target: p38a activated, mitogen-activated protein kinase-activated protein kinase 2 (MAPKAP-K2 or MK2) enzyme (Homo sapiens (Human), UniProt P49137)
Experiment: MK2 Omnia continuous-read kinase assay for compound potency
Assay type: biochemical
Details: [MK-2]=0.4 nM, [ATP]=10 μM, [ST3-Sox]=10 μM; room temperature
From the text: Mitogen-Activated Protein Kinase-Activated Protein Kinase 2 Omnia® Assay for Compound Potency Assessment:
The protocol below describes a continuous-read kinase assay optimized to measure potency of compounds against p38a activated, mitogen-activated protein kinase-activated protein kinase 2 (MAPKAP-K2 or MK2) enzyme. Further details of this assay are described by Life Technologies, Carlsbad, CA on their website at the following URL: http://tools.lifetechnologies.com/content/sfs/manuals/omnia_kinase_assay_man.pdf. • [Reagent] used: • [MK-2]=0.4 nM, • [ATP]=10 μM and • [ST3-Sox]=10 μM (ATP^appKM=10 μM)
Briefly, 10× stock solutions of MK2 (PV3317, from Life Technologies), 1.13X ATP (AS001A), and Sox conjugated peptide substrate, S/T3-Sox, (KZN1031) were prepared in 1× kinase reaction buffer consisting of 20 mM Tris, pH 7.5, 5 mM MgCl2, 1 mM EGTA, 5 mM β-glycerophosphate, 5% glycerol (10× stock, KB001A) and 0.2 mM DTT (DS001A). Enzyme solution (5 μL) was added to each of DMSO ([…]) or serially diluted test compounds prepared in DMSO in a Corning (#3574) 384-well, white, non-binding surface microtiter plate (Corning, NY). Kinase reactions were started with the addition of 45 μL of the ATP-peptide substrate S/T3-Sox mix and monitored every 71 seconds for 120 minutes at λex360/λem485 in a Synergy H4 plate reader from BioTek (Winooski, VT) at room temperature.
Background signals from the no enzyme control wells were subtracted from all progress curves. The initial linear portions of the net progress curves were fit according to a linear equation to yield the slope and percentage of inhibition (% inhibition) at each compound concentration. The net progress curves obtained during the first two hours of reactions were also fit according to an ascending single-exponential equation (Eq. 1) to yield kobs values at each compound concentration. Plots of % Inhibition versus inhibitor concentrations were fit according to a dose-response equation (Eq. 2) to generate IC50 and Hill slope values while plots of kobs versus inhibitor concentration were fit according to Equation 3 (Eq. 3) to generate apparent kinact/K1 values using the GraphPad PRISM software (Version 6.00; GraphPad San Diego, CA).
where F is the fluorescence intensity from the plate reader, V0 is a constant reflecting the relationship between the instrument readout and product concentration, t is time, e is Euler's number, and kobs is the observed inactivation rate constant.
where % Inhibition is percentage of inhibition, IC50 is half maximal inhibitory concentration, [I] is the inhibitor concentration, and n is the Hill slope.
where kobs is the observed inactivation rate constant, kinact is the apparent inactivation rate constant, K1 is the apparent inhibition constant, and [I] is the inhibitor concentration. […] Potency results for the compounds tested are shown in Table 4 in the column entitled “MK2 IC50.”

p38a activated, mitogen-activated protein kinase-activated protein kinase 2 (MAPKAP-K2 or MK2) enzyme, sequence (P49137 whole entry): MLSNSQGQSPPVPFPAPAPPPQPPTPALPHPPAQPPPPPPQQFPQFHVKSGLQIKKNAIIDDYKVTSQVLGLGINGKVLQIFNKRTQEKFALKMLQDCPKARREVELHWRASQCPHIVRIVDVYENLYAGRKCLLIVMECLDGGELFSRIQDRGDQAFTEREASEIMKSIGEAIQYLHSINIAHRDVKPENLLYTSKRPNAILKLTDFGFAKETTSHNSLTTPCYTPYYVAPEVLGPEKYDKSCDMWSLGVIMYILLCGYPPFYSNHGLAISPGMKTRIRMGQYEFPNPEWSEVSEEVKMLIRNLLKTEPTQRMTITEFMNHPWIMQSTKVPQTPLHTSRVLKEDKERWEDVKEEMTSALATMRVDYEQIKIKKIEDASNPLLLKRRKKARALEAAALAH

| SMILES | IC50 [nM] |
| --- | --- |
| C#Cc1cc(-c2ccc3c(ccc4sc5c(c43)NC[C@@H](C)NC5=O)n2)cc(CN2C[C@@H](C)O[C@H](C)C2)n1 [Example I-188, (R)-3-(2-(((2R,6R)-2,6-dimethylmorpholino)methyl)-6-ethynylpyridin-4-yl)-10-methyl-9,10,11,12-tetrahydro-8H-[1,4]diazepino[5′,6′:4,5]thieno[3,2-f]quinolin-8-one] | 25 |
| C=C(F)c1cccc(-c2ccc3c(ccc4sc5c(c43)NC[C@@H](C)NC5=O)n2)n1 [Example I-90, (R)-3-(6-(1-fluorovinyl)pyridin-2-yl)-10-methyl-9,10,11,12-tetrahydro-8H-[1,4]diazepino[5′,6′:4,5]thieno[3,2-f]quinolin-8-one] | 460 |
| C=Cc1cc(-c2ccc3c(ccc4sc5c(c43)NC[C@@H](C)NC5=O)n2)cc(C)n1 [Example I-110, (R)-10-methyl-3-(2-methyl-6-vinylpyridin-4-yl)-9,10,11,12-tetrahydro-8H-[1,4]diazepino[5′,6′:4,5]thieno[3,2-f]quinolin-8-one] | 8 |
| C=Cc1cc(-c2ccc3c(ccc4sc5c(c43)NC[C@@H](C)NC5=O)n2)cc(CN2CCC(F)(F)CC2)n1 [Example I-123, (R)-3-(2-((4,4-difluoropiperidin-1-yl)methyl)-6-vinylpyridin-4-yl)-10-methyl-9,10,11,12-tetrahydro-8H-[1,4]diazepino[5′,6′:4,5]thieno[3,2-f]quinolin-8-one] | 31 |
| C#Cc1cc(-c2ccc3c(ccc4sc5c(c43)NC[C@@H](C)NC5=O)n2)cc(CN2CCN(C)CC2)n1 [Example I-126, (R)-3-(2-ethynyl-6-((4-methylpiperazin-1-yl)methyl)pyridin-4-yl)-10-methyl-9,10,11,12-tetrahydro-8H-[1,4]diazepino[5′,6′:4,5]thieno[3,2-f]quinolin-8-one] | 34 |
| C=Cc1nccn1-c1ccc2c(ccc3sc4c(c32)NC[C@@H](C)NC4=O)n1 [Example I-164, (R)-10-methyl-3-(2-vinyl-1H-imidazol-1-yl)-9,10,11,12-tetrahydro-8H-[1,4]diazepino[5′,6′:4,5]thieno[3,2-f]quinolin-8-one] | 1 |
| C=Cc1cc(-c2ccc3c(ccc4sc5c(c43)NC[C@@H](C)NC5=O)n2)c(OC(F)(F)F)cn1 [Example I-245, (R)-10-methyl-3-(5-(trifluoromethoxy)-2-vinylpyridin-4-yl)-9,10,11,12-tetrahydro-8H-[1,4]diazepino[5′,6′:4,5]thieno[3,2-f]quinolin-8-one] | 74 |
| C[C@@H]1CNc2c(sc3ccc4nc(-c5nc(Cl)ncc5C#N)ccc4c23)C(=O)N1 [Example I-9, (R)-2-chloro-4-(10-methyl-8-oxo-9,10,11,12-tetrahydro-8H-[1,4]diazepino[5′,6′:4,5]thieno[3,2-f]quinolin-3-yl)pyrimidine-5-carbonitrile] | 97 |
| C#Cc1cncc(-c2ccc3c(ccc4sc5c(c43)NC[C@@H](C)NC5=O)n2)c1 [Example I-83, (R)-3-(5-ethynylpyridin-3-yl)-10-methyl-9,10,11,12-tetrahydro-8H-[1,4]diazepino[5′,6′:4,5]thieno[3,2-f]quinolin-8-one] | 83 |
| C=Cc1cc(-c2ccc3c(ccc4sc5c(c43)NC[C@@H](C)NC5=O)n2)cc(CN2CCC(OC(F)(F)F)CC2)n1 [Example I-189, (R)-10-methyl-3-(2-((4-(trifluoromethoxy)piperidin-1-yl)methyl)-6-vinylpyridin-4-yl)-9,10,11,12-tetrahydro-8H-[1,4]diazepino[5′,6′:4,5]thieno[3,2-f]quinolin-8-one] | 206 |
| C=Cc1cc(-c2ccc3c(ccc4sc5c(c43)NC[C@@H](C)NC5=O)n2)c(C)nn1 [Example I-136, (R)-10-methyl-3-(3-methyl-6-vinylpyridazin-4-yl)-9,10,11,12-tetrahydro-8H-[1,4]diazepino[5′,6′:4,5]thieno[3,2-f]quinolin-8-one] | 9 |
| C[C@@H]1CNc2c(sc3ccc4nc(-c5nc(Cl)ncc5COC5(C)CCC5)ccc4c23)C(=O)N1 [Example I-27, (R)-3-(2-chloro-5-((1-methylcyclobutoxy)methyl)pyrimidin-4-yl)-10-methyl-9,10,11,12-tetrahydro-8H-[1,4]diazepino[5′,6′:4,5]thieno[3,2-f]quinolin-8-one] | 391 |
| C[C@@H]1CNc2c(sc3ccc4nc(-c5cc(Cl)nc(COC6CCN(C)CC6)n5)ccc4c23)C(=O)N1 [Example I-15, (R)-3-(6-chloro-2-(((1-methylpiperidin-4-yl)oxy)methyl)pyrimidin-4-yl)-10-methyl-9,10,11,12-tetrahydro-8H-[1,4]diazepino[5′,6′:4,5]thieno[3,2-f]quinolin-8-one] | 10 |
| C#Cc1nc(CN2CCN(C)CC2)cc(-c2ccc3c(ccc4sc5c(c43)NC[C@@H](C)NC5=O)n2)n1 [Example I-89, (R)-3-(2-ethynyl-6-((4-methylpiperazin-1-yl)methyl)pyrimidin-4-yl)-10-methyl-9,10,11,12-tetrahydro-8H-[1,4]diazepino[5′,6′:4,5]thieno[3,2-f]quinolin-8-one] | 26 |
| C=Cc1ncc(CO)c(-c2ccc3c(ccc4sc5c(c43)NC[C@@H](C)NC5=O)n2)n1 [Example I-77, (R)-3-(5-(hydroxymethyl)-2-vinylpyrimidin-4-yl)-10-methyl-9,10,11,12-tetrahydro-8H-[1,4]diazepino[5′,6′:4,5]thieno[3,2-f]quinolin-8-one] | 13 |
| C[C@@H]1CNc2c(sc3ccc4nc(-c5cc(CO)nc(Cl)n5)ccc4c23)C(=O)N1 [Example I-84, (R)-3-(2-chloro-6-(hydroxymethyl)pyrimidin-4-yl)-10-methyl-9,10,11,12-tetrahydro-8H-[1,4]diazepino[5′,6′:4,5]thieno[3,2-f]quinolin-8-one] | 39 |
| C=Cc1sncc1-c1ccc2c(ccc3sc4c(c32)NC[C@@H](C)NC4=O)n1 [Example I-229, (R)-10-methyl-3-(5-vinylisothiazol-4-yl)-9,10,11,12-tetrahydro-8H-[1,4]diazepino[5′,6′:4,5]thieno[3,2-f]quinolin-8-one] | 123 |
| C#Cc1cc(-c2ccc3c(ccc4sc5c(c43)NC[C@@H](C)NC5=O)n2)c(OCCN2CCOCC2)nn1 [Example I-134, (R)-3-(6-ethynyl-3-(2-morpholinoethoxy)pyridazin-4-yl)-10-methyl-9,10,11,12-tetrahydro-8H-[1,4]diazepino[5′,6′:4,5]thieno[3,2-f]quinolin-8-one] | 137 |
| C=Cc1ncc(-c2ccc3c(ccc4sc5c(c43)NC[C@@H](C)NC5=O)n2)s1 [Example I-209, (R)-10-methyl-3-(2-vinylthiazol-5-yl)-9,10,11,12-tetrahydro-8H-[1,4]diazepino[5′,6′:4,5]thieno[3,2-f]quinolin-8-one] | 15 |
| C#Cc1cc(-c2ccc3c(ccc4sc5c(c43)NC[C@@H](C)NC5=O)n2)cc(N2CCCCC2)n1 [Example I-178, (R)-3-(2-ethynyl-6-(piperidin-1-yl)pyridin-4-yl)-10-methyl-9,10,11,12-tetrahydro-8H-[1,4]diazepino[5′,6′:4,5]thieno[3,2-f]quinolin-8-one] | 185 |
| C=Cc1cc(-c2ccc3c(ccc4sc5c(c43)NC[C@@H](C)NC5=O)n2)c(CN2CC3(COC3)C2)cn1 [Example I-263, (R)-3-(5-((2-oxa-6-azaspiro[3.3]heptan-6-yl)methyl)-2-vinylpyridin-4-yl)-10-methyl-9,10,11,12-tetrahydro-8H-[1,4]diazepino[5′,6′:4,5]thieno[3,2-f]quinolin-8-one] | 47 |
| C#Cc1cccc(-c2ccc3c(ccc4sc5c(c43)NC[C@@H](C)NC5=O)n2)n1 [Example I-56, (R)-3-(6-ethynylpyridin-2-yl)-10-methyl-9,10,11,12-tetrahydro-8H-[1,4]diazepino[5′,6′:4,5]thieno[3,2-f]quinolin-8-one] | 194 |
| C/C=C/c1cc(-c2ccc3c(ccc4sc5c(c43)NC[C@@H](C)NC5=O)n2)ccn1 [Example I-113, (R,E)-10-methyl-3-(2-(prop-1-en-1-yl)pyridin-4-yl)-9,10,11,12-tetrahydro-8H-[1,4]diazepino[5′,6′:4,5]thieno[3,2-f]quinolin-8-one] | 53 |
